Molecular target: T1, 5-lipoxygenase (Cavia porcellus, UniProt A0A286X958)
T1 construct: The 5-LO was concentrated in a known manner from PMNs of male Dunkin-Hartley guinea-pigs; endogenous in cells; host or cells: peritoneal PMNs of male Dunkin-Hartley guinea-pigs, homogenized; 10,000 x g supernatant used as enzyme solution
T1 sequence (A0A286X958 1-674): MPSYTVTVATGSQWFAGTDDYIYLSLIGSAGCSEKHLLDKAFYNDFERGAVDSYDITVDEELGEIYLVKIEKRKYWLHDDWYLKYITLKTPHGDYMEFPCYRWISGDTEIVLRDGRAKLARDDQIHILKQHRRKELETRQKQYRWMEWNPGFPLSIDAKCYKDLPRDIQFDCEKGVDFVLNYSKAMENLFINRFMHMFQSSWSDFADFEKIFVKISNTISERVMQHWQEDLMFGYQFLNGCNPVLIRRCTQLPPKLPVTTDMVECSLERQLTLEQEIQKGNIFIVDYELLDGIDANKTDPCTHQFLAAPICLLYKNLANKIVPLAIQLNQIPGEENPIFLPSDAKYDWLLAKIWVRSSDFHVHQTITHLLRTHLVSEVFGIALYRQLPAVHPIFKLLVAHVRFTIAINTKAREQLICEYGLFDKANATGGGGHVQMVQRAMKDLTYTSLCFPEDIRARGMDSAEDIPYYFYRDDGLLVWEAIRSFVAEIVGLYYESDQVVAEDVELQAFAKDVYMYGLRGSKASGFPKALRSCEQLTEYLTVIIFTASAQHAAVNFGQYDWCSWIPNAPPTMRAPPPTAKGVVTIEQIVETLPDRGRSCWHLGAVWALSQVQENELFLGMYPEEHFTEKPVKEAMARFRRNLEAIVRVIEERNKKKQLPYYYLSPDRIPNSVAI
Test: inhibitory activity on free 5-lipoxygenase concentrated from peritoneal PMNs of the guinea-pig (5-HETE formation)
Assay type: biochemical
Details: 10^-5 mole/liter; guinea-pig 5-LO, 37° C.; read-out: In vitro % inhibitory activity on 5-HETE formation caused by free 5-LO
Description: 4b. In vitro determination of inhibitory activity on 5-lipoxygenase concentrated from peritoneal PMNs of the guinea-pig.
An inhibition of 5-lipoxygenase can be caused by direct inhibitory action of the substances on the enzyme and/or by interference with the activation of the enzyme. While in test 4a the 5-lipoxygenase inhibition of the substances was investigated in rat PMN cells, in test 4b the inhibitory activity of the substances was investigated on free 5-LO concentrated from guinea-pig PMN cells according to the method of D. Aharony et al., J. Biol. Chem. 261 (1986), 11512-11519 (1986).
The 5-LO was concentrated in a known manner from PMNs of male Dunkin-Hartley guinea-pigs (body weight 400 to 500 g) as follows. 10 ml of a solution containing 27.9 g/l of sodium thioglycolate were injected i.p. into the animals in order to induce the PMN invasion as a result of this inflammatory stimulus. After 22 hours, the animals were sacrificed by lethal ether anaesthesia. 70 ml of HBSS without Ca^++ and Mg^++ ions and containing 0.2% by weight of sodium citrate were then injected into the abdominal cavity. The cell suspension (>80% of the cells are PMNs) was withdrawn from the abdominal cavity, filtered through a cheese-making filter cloth, and washed twice with a 50 mM potassium phosphate buffer solution of pH 7.4, which contained 0.5 mM ethylenediaminetetraacetic acid, 1% by weight of gelatine and 20 μM indomethacin. The cells were resuspended, and the PMN suspension containing 10^8 cells/ml was homogenized three times for 15 seconds each in an ice-bath in a homogenizer of the Labsonic™ type set at high speed. The resulting suspension was centrifuged at 4° C. (15 minutes at 10,000×g). The supernatant liquid was used for the investigation as a solution of the free 5-LO enzyme.
The experiments were carried out at 37° C. for 7 minutes using 0.625 ml samples of this enzyme solution. For the experiments, the enzyme solution (=equivalent of 2.5×10^7 cells), 0.5 mM glutathione, 1 mM ATP and 0.3 mM calcium chloride were added to test tubes. […] of the test substance were added to the samples dissolved in sufficient dimethylformamide such that the dimethylformamide concentration in each test tube is 0.5%. Only dimethylformamide was added to the control samples. After 2 minutes, the formation of 5-(S)-hydroxy-6,8,11,14-eicosatetraenoic acid (=[…]) was initiated by addition 10 μM arachidonic acid. After 5 minutes, the reaction was terminated by addition of 0.625 ml of a mixture of methyl acetate/methanol/0.2 m citric acid 15:2:0.5 v/v/v. 5-HETE was extracted twice using this solvent mixture. The 5-HETE-containing phases were combined and evaporated to dryness under a nitrogen atmosphere. The residue was taken up in a mixture of methanol/water/acetic acid 75:21:0.02 v/v/v having a pH of 5.7, and the solution was investigated for its content of 5-HETE by means of reverse phase HPLC. To accomplish this, a […] silanized silica gel column (Hichrom® ODS2, 250×4.6 mm) was employed as the adsorbent and a mixture of methanol/water/acetic acid 75:21:0.02 adjusted to pH 5.7 with ammonia and having a flow rate of 1 ml/min was used as the eluent. 5-HETE, which was eluted as a single peak after 20 minutes, was identified by comparison with standard solutions eluted at the same time and determined using a UV light detector at a wavelength of 235 nm. Quantitative determination was carried out by comparison of the peak area obtained with peak areas occurring in the calibrated standard solutions. From the 5-HETE contents of the samples determined, the inhibitory activity of the test substances was calculated in % inhibition of 5-HETE synthesis in comparison to the control samples containing no test substance.

inhibition at 10 µM [%]	SMILES
53	COc1ccc2c3c1c(C)c(-c1ccc(O)cc1)n3CC(CCN1CCN(c3cc(C)ccn3)CC1)O2 (centres unmarked) [Example 3, 2,3-Dihydro-5-(4-hydroxyphenyl)-7-methoxy-6-methyl-2-[2-(4-(4-methylpyridin-2-yl)piperazin-1-yl)ethyl]pyrrolo[1,2,3-de]-1,4-benzoxazine]
100	Cc1ccnc(N2CCN(CCC3Cn4c(-c5ccc(O)cc5)c(C)c5c(O)ccc(c54)O3)CC2)c1 (centres unmarked) [Example 4, 2,3-Dihydro-7-hydroxy-5-(4-hydroxyphenyl)-6-methyl-2-[2-(4-(4-methylpyridin-2-yl)piperazin-1-yl)ethyl]pyrrolo[1,2,3-de]-1,4-benzoxazine]
88	Cc1ccnc(N2CCN(C(=O)CCCC3Cn4c(-c5cc(C)c(O)c(C)c5)c(C)c5cccc(c54)O3)CC2)c1 (centres unmarked) [Example 9, 2,3-Dihydro-5-(3,5-dimethyl-4-hydroxyphenyl)-6-methyl-2-[4-(4-(4-methylpyridin-2-yl)piperazin-1-yl)-4-oxobutyl]-pyrrolo[1,2,3-de]-1,4-benzoxazine]
100	COc1cc(-c2c(C)c3cccc4c3n2CC(CCN2CCN(c3cc(C)ccn3)CC2)O4)ccc1O (centres unmarked) [Example 12]
99	Cc1ccnc(N2CCN(CCC3Cn4c(-c5ccc(O)c(O)c5)c(C)c5cccc(c54)O3)CC2)c1 (centres unmarked) [Example 13]
94	Cc1ccnc(N2CCN(C(=O)CCC3Cn4c(-c5ccc(O)cc5)c(C)c5cccc(c54)O3)CC2)c1 (centres unmarked) [Example 15]
100	Cc1ccnc(N2CCN(CCC3Cn4c(-c5cc(C)c(O)c(C)c5)c(C)c5cccc(c54)O3)CC2)c1 (centres unmarked) [Example 20]
93	Cc1cc(-c2c(C)c3cccc4c3n2CC(CCCC(=O)N2CCN(c3ccccn3)CC2)O4)cc(C)c1O (centres unmarked) [Example 23]
92	Cc1ccnc(N2CCN(C(=O)CCC3Cn4c(-c5cc(C)c(O)c(C)c5)c(C)c5cccc(c54)O3)CC2)c1 (centres unmarked) [Example 25]
96	Cc1cc(-c2c(C)c3cccc4c3n2CC(CCC(=O)N2CCN(c3ccccn3)CC2)O4)cc(C)c1O (centres unmarked) [Example 26]
50	Cc1cc(-c2c(C)c3c(F)ccc4c3n2CC(CCN2CCN(c3ccccn3)CC2)O4)cc(C)c1O (centres unmarked) [Example 27]
44	Cc1ccnc(N2CCN(CCC3Cn4c(-c5cc(C)c(O)c(C)c5)c(C)c5c(F)ccc(c54)O3)CC2)c1 (centres unmarked) [Example 28]
67	Cc1ccnc(N2CCN(CCCC3Cn4c(-c5cc(C)c(O)c(C)c5)c(C)c5c(F)ccc(c54)O3)CC2)c1 (centres unmarked) [Example 29]
97	Cc1ccc(N2CCN(C(=O)CCC3Cn4c(-c5ccc(O)cc5)c(C)c5cccc(c54)O3)CC2)nc1 (centres unmarked) [Example 34]
100	COc1cc(-c2c(C)c3cccc4c3n2CC(CCC(=O)N2CCN(c3ccc(C)cn3)CC2)O4)ccc1O (centres unmarked) [Example 39]
55	Cc1ccnc(N2CCN(CCC3Cn4c(-c5cc(C)c(O)c(C)c5)c(C)c5cc(F)cc(c54)O3)CC2)c1 (centres unmarked) [Example 42]
77	COc1cc2c3c(c1)c(C)c(-c1cc(C)c(O)c(C)c1)n3CC(CCN1CCN(c3cc(C)ccn3)CC1)O2 (centres unmarked) [Example 43]
98	Cc1ccnc(N2CCN(CCC3Cn4c(-c5cc(C)c(O)c(C)c5)c(C)c5cc(O)cc(c54)O3)CC2)c1 (centres unmarked) [Example 44]
99	Cc1cc(-c2c(C)c3cccc4c3n2CC(CCCCN2CCN(c3ccccn3)CC2)O4)cc(C)c1O (centres unmarked) [Example 65]
100	Cc1ccnc(N2CCN(C(=O)CCC3Cn4c(-c5cc(C)c(O)c(C)c5)c(C)c5c(O)ccc(c54)O3)CC2)c1 (centres unmarked) [Example 67]
100	Cc1ccnc(N2CCN(C(=O)CCC3Cn4c(-c5ccc(O)cc5)c(C)c5c(O)ccc(c54)O3)CC2)c1 (centres unmarked) [Example 69]
100	Cc1cc(-c2c(C)c3c(O)ccc4c3n2CC(CCC(=O)N2CCN(c3ccccn3)CC2)O4)cc(C)c1O (centres unmarked) [Example 71]
100	COc1cc(-c2c(C)c3c(O)ccc4c3n2CC(CCC(=O)N2CCN(c3ccccn3)CC2)O4)cc(C)c1O (centres unmarked) [Example 72]
100	Cc1ccnc(N2CCN(CCCC3Cn4c(-c5cc(C)c(O)c(C)c5)c(C)c5c(O)ccc(c54)O3)CC2)c1 (centres unmarked) [Example 73]
100	Cc1cccnc1N1CCN(CCCC2Cn3c(-c4cc(C)c(O)c(C)c4)c(C)c4c(O)ccc(c43)O2)CC1 (centres unmarked) [Example 74]
100	Cc1cc(-c2c(C)c3c(OCc4ccccc4)ccc4c3n2CC(CCC(=O)N2CCN(c3ccccn3)CC2)O4)cc(C)c1O (centres unmarked) [Example 75]

— patent US5474988A, “5-phenylpyrrolo-1,4-benzoxazine and 5-phenylpyrrolo-1,4-benzothiazine compounds, process and intermediates for their production and pharmaceutical compositions containing them” (Kali-Chemie Pharma GmbH, priority 1993, dated 1995)
